Experimental data: patent US9511064B2, “Combination therapy for the treatment of cancer and immunosuppression” (Basilea Pharmaceutica AG, priority 2012, dated 2016)
Where two headings read alike, the source gives them in different places.

Columns and labels:
mouse mast cell line 6.5 = assay: AlamarBlue conversion cell proliferation assay, 6.5 cell line; assay type: cell-based
Protocol: (§1) The in vitro anti-proliferative activity of compounds of formula (I), metformin and combinations thereof is tested in an AlamarBlue conversion cell proliferation assay (Promega) on HL60 tumor cells and the mouse mast cell line 6.5 (Colombi et al., Oncogene 2011, 30:1551-65). Cells are seeded into 96-well microtiter plates (seeding cell density is 7,000 cells per well in 150 uL Iscove's medium) and test compounds are added (compounds of formula (I) are added from a 10 mM stock solution in DMSO, metformin from a freshly prepared 1 M solution in culture medium). Plates are incubated for 3 days at 37°, 5% CO2 and proliferation is determined by AlamarBlue staining (0.1 vol % added to cultures and incubated for further 4-5 hours). The conversion of AlamarBlue is proportional to live cell number and is read with a fluorescence plate reader (Ex/Em 535/595 nm). Growth is normalized to the untreated controls.

HL60 tumor cells = assay: AlamarBlue conversion cell proliferation assay, HL60 cell line; assay type: cell-based
Protocol: as §1

[1] = combined with 4 mM metformin, 3 days incubation, read-out: concentration that inhibits the proliferation of cells by approximately 50% when combined with 4 mM metformin, 6.5 cell line
[2] = combined with 4 mM metformin, 3 days incubation, read-out: concentration that inhibits the proliferation of cells by approximately 50% when combined with 4 mM metformin, HL60 cell line
[3] = read-out: concentration that inhibits the proliferation of cells by approximately 50% when combined with 4 mM metformin, 6.5 cell line, 3 days incubation
[4] = read-out: concentration that inhibits the proliferation of cells by approximately 50% when combined with 4 mM metformin, HL60 cell line, 3 days incubation

Row | IC50 (HL60 tumor cells; [2]) | SMILES | IC50 (mouse mast cell line 6.5; [1]) | IC50 (mouse mast cell line 6.5; [3]) | IC50 (HL60 tumor cells; [4])
1 | 4 µM | COC(=O)[C@H]1[C@H]2C[C@@H]3c4[nH]c5cc(OC)ccc5c4CCN3C[C@H]2C[C@@H](OC(=O)c2cc(OC)c(OC(=O)OCc3ccc(Cl)cc3)c(OC)c2)[C@@H]1OC [Example 9, methyl (1R,15S,17R,18R,19S,20S)-17-{[4-({[(4-chlorophenyl)methoxy]carbonyl}oxy)-3,5-dimethoxyphenyl]carbonyloxy}-6,18-dimethoxy-3,13-diazapentacyclo[11.8.0.0^2,10.0^4,9.0^15,20]henicosa-2(10),4,6,8-tetraene-19-carboxylate] | 4 µM |  | 
2 | 2 µM | COC(=O)[C@H]1[C@H]2C[C@@H]3c4[nH]c5cc(OC)ccc5c4CCN3C[C@H]2C[C@@H](OC(=O)c2cc(OC)c(OC(=O)OCc3cccc(Br)c3)c(OC)c2)[C@@H]1OC [Example 31] | 2 µM |  | 
3 | 2 µM | COC(=O)[C@H]1[C@H]2C[C@@H]3c4[nH]c5cc(OC)ccc5c4CCN3C[C@H]2C[C@@H](OC(=O)c2cc(OC)c(OC(=O)OCc3cc(F)cc(F)c3)c(OC)c2)[C@@H]1OC [Example 33] | 2 µM |  | 
4 | 1.5 µM | CCOC(=O)Oc1c(OC)cc(C(=O)O[C@@H]2C[C@@H]3CN4CCc5c([nH]c6cc(OC(=O)CNC(C)=O)ccc56)[C@H]4C[C@@H]3[C@H](C(=O)OC)[C@H]2OC)cc1OC [Example 17, methyl (1R,15S,17R,18R,19S,20S)-6-[(2-acetamidoacetyl)oxy]-17-({4-[(ethoxycarbonyl)oxy]-3,5-dimethoxyphenyl}carbonyloxy)-18-methoxy-3,13-diazapentacyclo[11.8.0.0^2,10.0^4,9.0^15,20]henicosa-2(10),4,6,8-tetraene-19-carboxylate] | 1 µM |  | 
5 | 3 µM | COC(=O)[C@H]1[C@H]2C[C@@H]3c4[nH]c5cc(OC)ccc5c4CCN3C[C@H]2C[C@@H](OC(=O)c2cc(OC)c(OC(=O)OCc3ccc(F)cc3)c(OC)c2)[C@@H]1OC [Example 36] | 2.5 µM |  | 
6 | 1.5 µM | CCOC(=O)Oc1c(OC)cc(C(=O)O[C@@H]2C[C@@H]3CN4CCc5c([nH]c6cc(OC(=O)CNC(=O)c7ccccc7)ccc56)[C@H]4C[C@@H]3[C@H](C(=O)OC)[C@H]2OC)cc1OC [Example 18, methyl (1R,15S,17R,18R,19S,20S)-17-({4-[(ethoxycarbonyl)oxy]-3,5-dimethoxyphenyl}carbonyloxy)-18-methoxy-6-{[2-(phenylformamido)acetyl]oxy}-3,13-diazapentacyclo[11.8.0.0^2,10.0^4,9.0^15,20]henicosa-2(10),4,6,8-tetraene-19-carboxylate] | 1 µM |  | 
7 | 2 µM | COC(=O)[C@H]1[C@H]2C[C@@H]3c4[nH]c5cc(OC)ccc5c4CCN3C[C@H]2C[C@@H](OC(=O)c2cc(OC)c(OC(=O)OCc3cccc(C(F)(F)F)c3)c(OC)c2)[C@@H]1OC [Example 32] | 2 µM |  | 
8 |  | CCOC(=O)Oc1c(OC)cc(C(=O)O[C@@H]2C[C@@H]3CN4CCc5c([nH]c6cc(OC(=O)CN)ccc56)[C@H]4C[C@@H]3[C@H](C(=O)OC)[C@H]2OC)cc1OC [Example 16, methyl (1R,15S,17R,18R,19S,20S)-6-[(2-aminoacetyl)oxy]-17-({4-[(ethoxycarbonyl)oxy]-3,5-dimethoxyphenyl}carbonyloxy)-18-methoxy-3,13-diazapentacyclo[11.8.0.0^2,10.0^4,9.0^15,20]henicosa-2(10),4,6,8-tetraene-19-carboxylate] |  | 1 µM | 2 µM
9 | 2 µM | COC(=O)[C@H]1[C@H]2C[C@@H]3c4[nH]c5cc(OC)ccc5c4CCN3C[C@H]2C[C@@H](OC(=O)c2cc(OC)c(OC(=O)OCc3cccnc3)c(OC)c2)[C@@H]1OC [Example 7, methyl (1R,15S,17R,18R,19S,20S)-17-[(3,5-dimethoxy-4-{[(pyridin-3-ylmethoxy)carbonyl]oxy}phenyl)carbonyloxy]-6,18-dimethoxy-3,13-diazapentacyclo[11.8.0.0^2,10.0^4,9.0^15,20]henicosa-2(10),4,6,8-tetraene-19-carboxylate] | 2.5 µM |  | 
10 | 4 µM | COC(=O)[C@H]1[C@H]2C[C@@H]3c4[nH]c5cc(OC)ccc5c4CCN3C[C@H]2C[C@@H](OC(=O)c2cc(OC)c(OC(=O)OCc3ccc(C(F)(F)F)cc3)c(OC)c2)[C@@H]1OC [Example 38] | 4 µM |  | 
11 |  | COC(=O)[C@H]1[C@H]2C[C@@H]3c4[nH]c5cc(OC)ccc5c4CCN3C[C@H]2C[C@@H](OC(=O)c2cc(OC)c(OC(=O)OCc3ccccc3)c(OC)c2)[C@@H]1OC [Example 21, methyl (1R,15S,17R,18R,19S,20S)-17-[(4-{[(benzyloxy)carbonyl]oxy}-3,5-dimethoxyphenyl)carbonyloxy]-6,18-dimethoxy-3,13-diazapentacyclo[11.8.0.0^2,10.0^4,9.0^15,20]henicosa-2(10),4,6,8-tetraene-19-carboxylate] |  | 2 µM | 3.5 µM
12 |  | COC(=O)[C@H]1[C@H]2C[C@@H]3c4[nH]c5cc(OC)ccc5c4CCN3C[C@H]2C[C@@H](OC(=O)c2cc(OC)c(OC(=O)OCc3ccncc3)c(OC)c2)[C@@H]1OC [Example 6, methyl (1R,15S,17R,18R,19S,20S)-17-[(3,5-dimethoxy-4-{[(pyridin-4-ylmethoxy)carbonyl]oxy}phenyl)carbonyloxy]-6,18-dimethoxy-3,13-diazapentacyclo[11.8.0.0^2,10.0^4,9.0^15,20]henicosa-2(10),4,6,8-tetraene-19-carboxylate] |  | 2.5 µM | 2.5 µM
13 | 2 µM | CCOC(=O)Oc1c(OC)cc(C(=O)O[C@@H]2C[C@@H]3CN4CCc5c([nH]c6cc(OC(C)=O)ccc56)[C@H]4C[C@@H]3[C@H](C(=O)OC)[C@H]2OC)cc1OC [Example 14, methyl (1R,15S,17R,18R,19S,20S)-6-(acetyloxy)-17-({4-[(ethoxycarbonyl)oxy]-3,5-dimethoxyphenyl}carbonyloxy)-18-methoxy-3,13-diazapentacyclo[11.8.0.0^2,10.0^4,9.0^15,20]henicosa-2(10),4,6,8-tetraene-19-carboxylate] | 1.5 µM |  | 
14 |  | CCOC(=O)Oc1c(OC)cc(C(=O)O[C@@H]2C[C@@H]3CN4CCc5c([nH]c6cc(OC(=O)OC(C)(C)C)ccc56)[C@H]4C[C@@H]3[C@H](C(=O)OC)[C@H]2OC)cc1OC [Example 12, methyl (1R,15S,17R,18R,19S,20S)-6-{[(tert-butoxy)carbonyl]oxy}-17-({4-[(ethoxycarbonyl)oxy]-3,5-dimethoxyphenyl}carbonyloxy)-18-methoxy-3,13-diazapentacyclo[11.8.0.0^2,10.0^4,9.0^15,20]henicosa-2(10),4,6,8-tetraene-19-carboxylate] |  | 1.5 µM | 1.5 µM
15 | 2 µM | CCOC(=O)Oc1c(OC)cc(C(=O)O[C@@H]2C[C@@H]3CN4CCc5c([nH]c6cc(O)ccc56)[C@H]4C[C@@H]3[C@H](C(=O)OC)[C@H]2OC)cc1OC [Example 13, methyl (1R,15S,17R,18R,19S,20S)-17-({4-[(ethoxycarbonyl)oxy]-3,5-dimethoxyphenyl}carbonyloxy)-6-hydroxy-18-methoxy-3,13-diazapentacyclo[11.8.0.0^2,10.0^4,9.0^15,20]henicosa-2(10),4,6,8-tetraene-19-carboxylate] | 1 µM |  | 
